Molecular target: T1, Alpha-1A adrenergic receptor (Homo sapiens, UniProt P35348)
T1 sequence (P35348 whole entry): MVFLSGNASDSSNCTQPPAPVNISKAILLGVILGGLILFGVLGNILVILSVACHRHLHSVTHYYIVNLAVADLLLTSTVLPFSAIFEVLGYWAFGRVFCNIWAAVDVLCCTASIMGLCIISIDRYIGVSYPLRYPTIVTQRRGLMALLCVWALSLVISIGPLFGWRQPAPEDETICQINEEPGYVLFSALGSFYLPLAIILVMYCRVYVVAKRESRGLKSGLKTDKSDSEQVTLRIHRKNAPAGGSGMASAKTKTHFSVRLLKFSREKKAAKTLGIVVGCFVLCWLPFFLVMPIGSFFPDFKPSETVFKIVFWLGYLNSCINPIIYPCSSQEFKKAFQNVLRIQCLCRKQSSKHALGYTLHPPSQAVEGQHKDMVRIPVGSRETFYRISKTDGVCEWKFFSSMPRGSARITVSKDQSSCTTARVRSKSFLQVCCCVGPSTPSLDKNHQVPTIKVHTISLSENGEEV

Row | SMILES | Ki [nM]
1 | COc1cccc(OC)c1OCCNCC1Oc2ccccc2OC1c1ccccc1 (stereo not drawn) [NSC_185453] | 0.23
2 | COc1ccccc1N1CCN(CCCNc2c(C)c(=O)n(C)c(=O)n2C)CC1 [Urapidil-5-methyl] | 4.2
3 | COc1ccc(OC)c(C(O)C(C)N)c1 (stereo not drawn) | > 10000
